Experimental data: patent US20160002248A1, “GLS1 INHIBITORS FOR TREATING DISEASE” (Board of Regents, The University of Texas System, priority 2014, published 2016)

Assays:
[1] = target: T1, purified recombinant human GAC (GLS1) (Homo sapiens, UniProt O94925); experiment: GLS1 Enzymatic Activity Assay (dual-coupled enzymatic assay); assay type: biochemical
T1 sequence (O94925 55-598 isoform O94925-3 limits assumed): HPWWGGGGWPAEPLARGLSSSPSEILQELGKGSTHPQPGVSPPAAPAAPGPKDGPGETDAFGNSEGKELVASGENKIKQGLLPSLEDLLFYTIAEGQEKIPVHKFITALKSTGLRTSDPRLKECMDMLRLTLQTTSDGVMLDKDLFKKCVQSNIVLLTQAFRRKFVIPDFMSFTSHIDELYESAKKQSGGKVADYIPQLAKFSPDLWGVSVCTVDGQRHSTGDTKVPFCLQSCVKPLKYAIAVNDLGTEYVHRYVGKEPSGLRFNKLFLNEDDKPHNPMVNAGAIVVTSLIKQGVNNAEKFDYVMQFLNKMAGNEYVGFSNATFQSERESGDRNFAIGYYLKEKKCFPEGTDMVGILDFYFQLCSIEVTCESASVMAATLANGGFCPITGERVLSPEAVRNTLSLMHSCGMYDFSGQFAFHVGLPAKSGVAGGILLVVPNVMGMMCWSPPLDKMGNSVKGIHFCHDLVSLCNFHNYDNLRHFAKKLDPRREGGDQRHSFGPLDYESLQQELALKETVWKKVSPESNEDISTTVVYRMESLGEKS
Procedure, shortened: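 Recombinant human GAC (2 nM) preincubated with 50 mM potassium phosphate, then inhibitor (10 min each, RT); 1 mM glutamine, pH 7.4 Hepes buffer, 1% DMSO. Glutamate coupled via glutamate oxidase/HRP to resorufin (Ex 530/Em 590), kinetic or 20-min endpoint; IC50 by four-parameter logistic fit.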

A549 cells = experiment: Proliferation Assay (A549 cell viability, Cell Titer Fluor); assay type: cell-based; settings: Homo sapiens, 72 hours
Procedure, shortened: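 Compound was added to A549 cells (1000/well, pre-grown 24 h in RPMI 1640 plus 10% dialyzed FBS) at 0.5% DMSO and left 72 h under 37 °C, 5% CO2, ambient O2. Live-cell fluorescence (Cell Titer Fluor) gave the EC50.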

SMILES | IC50 [1] | EC50 (A549 cells)
O=C(NCc1ccccn1)c1cn(CCCCc2cc3c(-c4ccc(C(F)(F)F)cc4)c(C4CC4)[nH]c3nn2)nn1 [Example 123, 1-(4-{6-cyclopropyl-5-[4-(trifluoromethyl)phenyl]-7H-pyrrolo[2,3-c]pyridazin-3-yl}butyl)-N-(pyridin-2-ylmethyl)-1H-1,2,3-triazole-4-carboxamide] | < 100 nM | 100 to 500 nM
N#Cc1ccc(-c2c(C3CC3)[nH]c3nnc(CCCCn4cc(C(=O)NCc5ccccn5)nn4)cc23)cc1 [Example 124, 1-{4-[5-(4-cyanophenyl)-6-cyclopropyl-7H-pyrrolo[2,3-c]pyridazin-3-yl]butyl}-N-(pyridin-2-ylmethyl)-1H-1,2,3-triazole-4-carboxamide] | < 100 nM | 500 to 5000 nM
O=C(NCc1ccccn1)c1cn(CCCCc2cc3c(-c4ccc(F)cc4)c(C4CC4)[nH]c3nn2)nn1 [Example 125, 1-{4-[6-cyclopropyl-5-(4-fluorophenyl)-7H-pyrrolo[2,3-c]pyridazin-3-yl]butyl}-N-(pyridin-2-ylmethyl)-1H-1,2,3-triazole-4-carboxamide] | < 100 nM | 100 to 500 nM
O=C(NCc1ccccn1)c1cn(CCCCc2cc3c(Cc4ccccn4)c(C4CC4)[nH]c3nn2)nn1 [Example 126, 1-{4-[6-cyclopropyl-5-(pyridin-2-ylmethyl)-7H-pyrrolo[2,3-c]pyridazin-3-yl]butyl}-N-(pyridin-2-ylmethyl)-1H-1,2,3-triazole-4-carboxamide] | 100 to 500 nM | 500 to 5000 nM
O=C(NCc1cc(OC(F)(F)F)ccc1F)c1cn(CCCCc2cc3c(Cc4ccccn4)c(C4CC4)[nH]c3nn2)nn1 [Example 127, 1-{4-[6-cyclopropyl-5-(pyridin-2-ylmethyl)-7H-pyrrolo[2,3-c]pyridazin-3-yl]butyl}-N-{[2-fluoro-5-(trifluoromethoxy)phenyl]methyl}-1H-1,2,3-triazole-4-carboxamide] | < 100 nM | 100 to 500 nM
O=C(NCc1cc(OC(F)(F)F)ccc1F)c1cn(CCCCc2cc3c(-c4ccncc4)c(C4CC4)[nH]c3nn2)nn1 [Example 128, 1-{4-[6-cyclopropyl-5-(pyridin-4-yl)-7H-pyrrolo[2,3-c]pyridazin-3-yl]butyl)-N-{[2-fluoro-5-(trifluoromethoxy)phenyl]methyl}-1H-1,2,3-triazole-4-carboxamide] | < 100 nM | < 100 nM
O=C(NCc1ccccn1)c1cn(CCCCc2cc3c(-c4cncnc4)c(C4CC4)[nH]c3nn2)nn1 [Example 129, 1-(4-(6-cyclopropyl-5-(pyrimidin-5-yl)-7H-pyrrolo[2,3-c]pyridazin-3-yl)butyl)-N-(pyridin-2-ylmethyl)-1H-1,2,3-triazole-4-carboxamide] | 100 to 500 nM | 500 to 5000 nM
CS(=O)(=O)N1CC(c2cc3cc(CCCCn4cc(C(=O)NCc5cc(OC(F)(F)F)ccc5F)nn4)nnc3[nH]2)C1 [Example 130, N-{[2-fluoro-5-(trifluoromethoxy)phenyl]methyl}-1-{4-[6-(1-methanesulfonylazetidin-3-yl)-7H-pyrrolo[2,3-c]pyridazin-3-yl]butyl}-1H-1,2,3-triazole-4-carboxamide] | < 100 nM | 100 to 500 nM
CC(C)OC(=O)N1CC(c2cc3cc(CCCCn4cc(C(=O)NCc5cc(OC(F)(F)F)ccc5F)nn4)nnc3[nH]2)C1 [Example 131, propan-2-yl 3-(3-{4-[4-({[2-fluoro-5-(trifluoromethoxy)phenyl]methyl}carbamoyl)-1H-1,2,3-triazol-1-yl]butyl}-7H-pyrrolo[2,3-c]pyridazin-6-yl)azetidine-1-carboxylate] | < 100 nM | < 100 nM
CCOC(=O)N1CC(c2cc3cc(CCCCn4cc(C(=O)NCc5cc(OC(F)(F)F)ccc5F)nn4)nnc3[nH]2)C1 [Example 132, ethyl 3-(3-{4-[4-({[2-fluoro-5-(trifluoromethoxy)phenyl]methyl}carbamoyl)-1H-1,2,3-triazol-1-yl]butyl)-7H-pyrrolo[2,3-c]pyridazin-6-yl)azetidine-1-carboxylate] | < 100 nM | < 100 nM
CC(C)(O)C(=O)N1CC(c2cc3cc(CCCCn4cc(C(=O)NCc5cc(OC(F)(F)F)ccc5F)nn4)nnc3[nH]2)C1 [Example 133, N-{[2-fluoro-5-(trifluoromethoxy)phenyl]methyl}-1-(4-{6-[1-(2-hydroxy-2-methylpropanoyl)azetidin-3-yl]-7H-pyrrolo[2,3-c]pyridazin-3-yl}butyl)-1H-1,2,3-triazole-4-carboxamide] | < 100 nM | 100 to 500 nM
O=C(NCc1ccccn1)c1cn(CCCCc2cc3cc(-c4ccccc4F)[nH]c3nn2)nn1 [Example 134, 1-(4-(6-(2-fluorophenyl)-7H-pyrrolo[2,3-c]pyridazin-3-yl)butyl)-N-(pyridin-2-ylmethyl)-1H-1,2,3-triazole-4-carboxamide] | < 100 nM | < 100 nM

Now from value to molecule:

IC50 [1] | EC50 (A549 cells) | SMILES
< 100 nM | 500 to 5000 nM | Cn1nccc1-c1c(C2CC2)[nH]c2nnc(CCCCn3cc(C(=O)NCc4ccccn4)nn3)cc12 [Example 135, 1-{4-[6-cyclopropyl-5-(1-methyl-1H-pyrazol-5-yl)-7H-pyrrolo[2,3-c]pyridazin-3-yl]butyl}-N-(pyridin-2-ylmethyl)-1H-1,2,3-triazole-4-carboxamide]
< 100 nM | 500 to 5000 nM | CS(=O)(=O)c1cccc(-c2c(C3CC3)[nH]c3nnc(CCCCn4cc(C(=O)NCc5ccccn5)nn4)cc23)c1 [Example 136, 1-{4-[6-cyclopropyl-5-(3-methanesulfonylphenyl)-7H-pyrrolo[2,3-c]pyridazin-3-yl]butyl}-N-(pyridin-2-ylmethyl)-1H-1,2,3-triazole-4-carboxamide]
< 100 nM | 500 to 5000 nM | CS(=O)(=O)Nc1cccc(-c2c(C3CC3)[nH]c3nnc(CCCCn4cc(C(=O)NCc5ccccn5)nn4)cc23)c1 [Example 137, 1-{4-[6-cyclopropyl-5-(3-methanesulfonamidophenyl)-7H-pyrrolo[2,3-c]pyridazin-3-yl]butyl}-N-(pyridin-2-ylmethyl)-1H-1,2,3-triazole-4-carboxamide]
< 100 nM | 500 to 5000 nM | O=C(NCc1ccccn1)c1cn(CCCCc2cc3c(-c4ccc(O)cc4)c(C4CC4)[nH]c3nn2)nn1 [Example 138, 1-{4-[6-cyclopropyl-5-(4-hydroxyphenyl)-7H-pyrrolo[2,3-c]pyridazin-3-yl]butyl}-N-(pyridin-2-ylmethyl)-1H-1,2,3-triazole-4-carboxamide]
< 100 nM | 100 to 500 nM | O=C(NCc1ccccn1)c1cn(CCCCc2cc3c(-c4ccsc4)c(C4CC4)[nH]c3nn2)nn1 [Example 139, 1-{4-[6-cyclopropyl-5-(thiophen-3-yl)-7H-pyrrolo[2,3-c]pyridazin-3-yl]butyl}-N-(pyridin-2-ylmethyl)-1H-1,2,3-triazole-4-carboxamide]
< 100 nM | 500 to 5000 nM | N#CCC(=O)N1CC(c2cc3cc(CCCCn4cc(C(=O)NCc5cc(OC(F)(F)F)ccc5F)nn4)nnc3[nH]2)C1 [Example 140, 1-(4-{6-[1-(2-cyanoacetyl)azetidin-3-yl]-7H-pyrrolo[2,3-c]pyridazin-3-yl}butyl)-N-{[2-fluoro-5-(trifluoromethoxy)phenyl]methyl}-1H-1,2,3-triazole-4-carboxamide]
< 100 nM | 100 to 500 nM | O=C(NCc1cc(OC(F)(F)F)ccc1F)c1cn(CCCCc2cc3cc(C4CN(C(=O)CC(F)(F)F)C4)[nH]c3nn2)nn1 [Example 141, N-{[2-fluoro-5-(trifluoromethoxy)phenyl]methyl}-1-(4-{6-[1-(3,3,3-trifluoropropanoyl)azetidin-3-yl]-7H-pyrrolo[2,3-c]pyridazin-3-yl}butyl)-1H-1,2,3-triazole-4-carboxamide]
< 100 nM | < 100 nM | O=C(NCc1cccc(OC(F)(F)F)c1)c1cn(CCCCc2cc3c(-c4ccccn4)c(C4CC4)[nH]c3nn2)nn1 [Example 143, 1-{4-[6-cyclopropyl-5-(pyridin-2-yl)-7H-pyrrolo[2,3-c]pyridazin-3-yl]butyl}-N-{[3-(trifluoromethoxy)phenyl]methyl}-1H-1,2,3-triazole-4-carboxamide]
< 100 nM | < 100 nM | O=C(NCc1cc(OC(F)(F)F)ccc1F)c1cn(CCCCc2cc3c(-c4ccccn4)c(C4CC4)[nH]c3nn2)nn1 [Example 144, 1-{4-[6-cyclopropyl-5-(pyridin-2-yl)-7H-pyrolo[2,3-c]pyridazin-3-yl]butyl}-N-{[2-fluoro-5-(trifluoromethoxy)phenyl]methyl}-1H-1,2,3-triazole-4-carboxamide]
< 100 nM | 100 to 500 nM | O=C(NCc1ccccn1)c1cn(CCCCc2cc3c(-c4ccc5c(c4)OCO5)c(C4CC4)[nH]c3nn2)nn1 [Example 145, 1-{4-[5-(2H-1,3-benzodioxol-5-yl)-6-cyclopropyl-7H-pyrrolo[2,3-c]pyridazin-3-yl]butyl}-N-(pyridin-2-ylmethyl)-1H-1,2,3-triazole-4-carboxamide]
